Columns and labels:
signalgrass = experiment: Test E preemergence; assay type: in vivo, Brachiaria platyphylla; conditions: 21 days, scale 0 to 100
From the text: (§1) Seeds of plant species selected from bermudagrass (Cynodon dactylon), Surinam grass (Brachiaria decumbens), crabgrass, large (large crabgrass, Digitaria sanguinalis), crabgrass, naked (naked crabgrass, Digitaria nuda), foxtail, green (green foxtail, Setaria viridis), johnsongrass (Sorghum halepense), kochia (Kochia scoparia), morningglory (pitted morningglory, Ipomoea lacunosa), nutsedge, purple (purple nutsedge, Cyperus rotundus), ragweed (common ragweed, Ambrosia elation), mustard, black (black mustard, Brassica nigra), guineagrass (Panicum maximum), dallisgrass (Paspalum dilatatum), barnyardgrass (Echinochloa crus-galli), sandbur (southern sandbur, Cenchrus echinatus), sowthistle (common sowthistle, Sonchus oleraceous), ryegrass, Italian (Italian ryegrass, Lolium multiflorum), signalgrass (broadleaf signalgrass, Brachiaria platyphylla), dayflower, VA (Virginia (VA) dayflower, Commelina virginica), bluegrass (annual bluegrass, Poa annua), quackgrass (Elytrigia repens), mallow (common mallow, Malva sylvestris), buckwheat, wild (wild buckwheat, Polygonum convolvulus), leafy spurge (Euphorbia esula), common chickweed (Stellaria media), wild poinsettia (Euphorbia heterophylla), pigweed, palmer (palmer pigweed, Amaranthus palmeri), and pigweed (redroot pigweed, Amaranthus retroflexus) were planted into a blend of loam soil and sand and treated preemergence with test chemicals formulated in a non-phytotoxic solvent mixture which included a surfactant.
(§2) Treated plants and controls were maintained in a greenhouse for 21 days, after which time all species were compared to controls and visually evaluated. Plant response ratings, summarized in Table E, are based on a scale of 0 to 100 where 0 is no effect and 100 is complete control. A dash (-) response means no test result.

ryegrass, Italian = experiment: Test E preemergence; assay type: in vivo, Lolium multiflorum; conditions: 21 days, scale 0 to 100
From the text: as §1, §2

smartweed = experiment: Test F postemergence; assay type: in vivo, Polygonum persicaria; conditions: 500 g ai/ha, scale 0 to 100
How it was run: (§3)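 Test chemicals in a non-phytotoxic solvent with surfactant were applied preemergence to seeds sown in silt loam, or postemergence to plants 2–18 cm tall (1- to 4-leaf stage). Plants were kept in a greenhouse for 14–21 days and then rated visually against controls on a 0 (no effect) to 100 (complete control) scale.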

mallow = experiment: Test E preemergence; assay type: in vivo, Malva sylvestris; conditions: 21 days, scale 0 to 100
From the text: as §1, §2

fall panicum = experiment: Test F postemergence; assay type: in vivo, Panicum dichotomiflorum; conditions: scale 0 to 100
How it was run: as §3

guineagrass = experiment: Test E preemergence; assay type: in vivo, Panicum maximum; conditions: 21 days, scale 0 to 100
From the text: as §1, §2

pigweed = experiment: Test E preemergence; assay type: in vivo, Amaranthus retroflexus; conditions: 21 days, scale 0 to 100
From the text: as §1, §2

barnyardgrass = experiment: Test F postemergence; assay type: in vivo, Echinochloa crus-galli; conditions: scale 0 to 100
How it was run: as §3

bluegrass = experiment: Test E preemergence; assay type: in vivo, Poa annua; conditions: 21 days, scale 0 to 100
From the text: as §1, §2

sowthistle = experiment: Test E preemergence; assay type: in vivo, Sonchus oleraceous; conditions: 21 days, scale 0 to 100
From the text: as §1, §2

buckwheat, wild = experiment: Test E preemergence; assay type: in vivo, Polygonum convolvulus; conditions: 21 days, scale 0 to 100
From the text: as §1, §2

## CCCc1cc(C(=O)NCC(F)(F)F)nn1Cc1ccnc(C(F)(F)F)c1 [Compound 105]
signalgrass; 16 g ai/ha
  Plant response rating, Signalgrass: 75
signalgrass; 31 g ai/ha
  Plant response rating, Signalgrass: 98
signalgrass; 62 g ai/ha
  Plant response rating, Signalgrass: 98
signalgrass; 125 g ai/ha
  Plant response rating, Signalgrass: 98
signalgrass; 250 g ai/ha
  Plant response rating, Signalgrass: 98
ryegrass, Italian; 16 g ai/ha
  Plant response rating, Ryegrass, Italian: 65
ryegrass, Italian; 31 g ai/ha
  Plant response rating, Ryegrass, Italian: 85
ryegrass, Italian; 62 g ai/ha
  Plant response rating, Ryegrass, Italian: 100
ryegrass, Italian; 125 g ai/ha
  Plant response rating, Ryegrass, Italian: 100
ryegrass, Italian; 250 g ai/ha
  Plant response rating, Ryegrass, Italian: 100
smartweed
  Plant response rating, Smartweed: 100
mallow; 16 g ai/ha
  Plant response rating, Mallow: 100
mallow; 31 g ai/ha
  Plant response rating, Mallow: 100
mallow; 62 g ai/ha
  Plant response rating, Mallow: 100
mallow; 125 g ai/ha
  Plant response rating, Mallow: 100
mallow; 250 g ai/ha
  Plant response rating, Mallow: 100
Fall panicum; Postemergence, 31 g ai/ha
  Plant response rating, Fall Panicum: 10
Fall panicum; Postemergence, 125 g ai/ha
  Plant response rating, Fall Panicum: 30
Fall panicum; Postemergence, 250 g ai/ha
  Plant response rating, Fall Panicum: 80
Fall panicum; postemergence, 62 g ai/ha
  Plant response rating, Fall Panicum: 20
Fall panicum; postemergence, 500 g ai/ha
  Plant response rating, Fall Panicum: 90
guineagrass; 16 g ai/ha
  Plant response rating, Guineagrass: 75
guineagrass; 31 g ai/ha
  Plant response rating, Guineagrass: 90
guineagrass; 62 g ai/ha
  Plant response rating, Guineagrass: 100
guineagrass; 125 g ai/ha
  Plant response rating, Guineagrass: 100
guineagrass; 250 g ai/ha
  Plant response rating, Guineagrass: 100
pigweed; 16 g ai/ha
  Plant response rating, Pigweed: 100
pigweed; 31 g ai/ha
  Plant response rating, Pigweed: 100
pigweed; 62 g ai/ha
  Plant response rating, Pigweed: 100
pigweed; 125 g ai/ha
  Plant response rating, Pigweed: 100
pigweed; 250 g ai/ha
  Plant response rating, Pigweed: 100
barnyardgrass; Postemergence, 31 g ai/ha
  Plant response rating, Barnyardgrass: 10
barnyardgrass; Postemergence, 125 g ai/ha
  Plant response rating, Barnyardgrass: 15
barnyardgrass; Postemergence, 250 g ai/ha
  Plant response rating, Barnyardgrass: 60
barnyardgrass; postemergence, 62 g ai/ha
  Plant response rating, Barnyardgrass: 5
barnyardgrass; postemergence, 500 g ai/ha
  Plant response rating, Barnyardgrass: 90
bluegrass; 16 g ai/ha
  Plant response rating, Bluegrass: 40
bluegrass; 31 g ai/ha
  Plant response rating, Bluegrass: 70
bluegrass; 62 g ai/ha
  Plant response rating, Bluegrass: 100
bluegrass; 125 g ai/ha
  Plant response rating, Bluegrass: 100
bluegrass; 250 g ai/ha
  Plant response rating, Bluegrass: 100
sowthistle; 16 g ai/ha
  Plant response rating, Sowthistle: 100
sowthistle; 31 g ai/ha
  Plant response rating, Sowthistle: 100
sowthistle; 62 g ai/ha
  Plant response rating, Sowthistle: 100
sowthistle; 125 g ai/ha
  Plant response rating, Sowthistle: 100
sowthistle; 250 g ai/ha
  Plant response rating, Sowthistle: 100
buckwheat, wild; 16 g ai/ha
  Plant response rating, Buckwheat, Wild: 100
buckwheat, wild; 31 g ai/ha
  Plant response rating, Buckwheat, Wild: 100
buckwheat, wild; 62 g ai/ha
  Plant response rating, Buckwheat, Wild: 100
buckwheat, wild; 125 g ai/ha
  Plant response rating, Buckwheat, Wild: 100
buckwheat, wild; 250 g ai/ha
  Plant response rating, Buckwheat, Wild: 100
